Counter-ions that a name gives are not always drawn.

This assay deals with T1, human C1s protein (Homo sapiens, UniProt P09871).
T1 construct: A104
T1 sequence (P09871 16-688): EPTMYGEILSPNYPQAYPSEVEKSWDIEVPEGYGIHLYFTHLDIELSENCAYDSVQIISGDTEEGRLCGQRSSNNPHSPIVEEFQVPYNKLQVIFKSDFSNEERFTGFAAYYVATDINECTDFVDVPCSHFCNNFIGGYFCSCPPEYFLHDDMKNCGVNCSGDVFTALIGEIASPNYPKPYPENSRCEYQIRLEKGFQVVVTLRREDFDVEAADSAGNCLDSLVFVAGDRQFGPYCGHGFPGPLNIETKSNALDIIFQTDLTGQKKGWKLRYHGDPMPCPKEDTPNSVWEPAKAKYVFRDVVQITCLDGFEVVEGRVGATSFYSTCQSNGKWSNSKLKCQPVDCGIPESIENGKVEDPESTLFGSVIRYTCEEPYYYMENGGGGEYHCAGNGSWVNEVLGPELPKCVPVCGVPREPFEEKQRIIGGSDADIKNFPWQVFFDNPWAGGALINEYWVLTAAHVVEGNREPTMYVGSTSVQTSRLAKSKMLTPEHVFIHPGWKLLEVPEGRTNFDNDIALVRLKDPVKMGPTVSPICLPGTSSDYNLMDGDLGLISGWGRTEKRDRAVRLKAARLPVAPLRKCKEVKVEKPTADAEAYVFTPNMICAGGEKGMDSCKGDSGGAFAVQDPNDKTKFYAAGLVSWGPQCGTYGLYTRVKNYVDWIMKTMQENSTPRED
The assay can be described thus: C1s enzymatic assay (hydrolysis of YLGR-Rh110-dPro). The class given is biochemical. The settings on record: substrate YLGR-Rh110-dPro 20 μM, 15 min pre-incubation, 60 min RT, fluorescence, read-out: hC1s pIC50 (converted). A digest of the protocol: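 Fluorogenic assay in which C1s cleaves YLGR-Rh110-dPro (20 μM final) to release fluorescent Rh110, in buffer with 0.1 mg/mL BSA. Enzyme was preincubated 15 min with compound before substrate was added. Compounds were run as 11-point curves, with DMSO as high control and Nafamostat as low control.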
Turning to `Cc1nnc(N)c2ccc(-c3ccc4c(c3)B(O)OC4)cc12` [Example 14, 6-(1-hydroxy-3H-2,1-benzoxaborol-6-yl)-4-methylphthalazin-1-amine Formic Acid Salt], the IC50 is 14.1 nM.

Regarding `Nc1cnnc2cc(-c3cc(B(O)O)c4occc4c3)ccc12` [Example 149, [5-(4-aminocinnolin-7-yl)-1-benzofuran-7-yl]boronic Acid Formic Acid Salt], the IC50 was 0.603 nM.

Take `COc1cc(C(F)(F)F)c(-c2ccc3c(N)nnc(C)c3c2)cc1B(O)O` [Example 63, [5-(1-amino-4-methylphthalazin-6-yl)-2-methoxy-4-(trifluoromethyl)phenyl]boronic Acid]: the IC50 is 2.14 nM.

On to `COc1c(F)cc(B(O)O)cc1-c1ccc2c(N)nnc(C)c2c1` [Example 57, [3-(1-amino-4-methylphthalazin-6-yl)-5-fluoro-4-methoxyphenyl]boronic Acid Trifluoroacetic Acid Salt], for which the IC50 was 1.48 nM.

Consider `COc1ccc(B(O)O)cc1-c1cnc2c(N)cnnc2c1` [Example 144, (3-{4-aminopyrido[3,2-C]pyridazin-7-yl}-4-methoxyphenyl)boronic Acid], for which the IC50 was 66.1 nM.

Turning to `Nc1nncc2cc(-c3cccc(B(O)O)c3)ccc12` [Example 1, [3-(1-aminophthalazine-6-yl)phenyl]boronic Acid], the IC50 was 1.17 nM.

As for `Nc1nncc2cc(-c3cc(B(O)O)ccc3NC(=O)c3ccccc3Cl)ccc12` [Example 18, [3-(1-aminophthalazin-6-yl)-4-[(2-chlorobenzoyl)amino]phenyl]boronic Acid Formic Acid Salt], the IC50 was 5.5 nM.

Take `Nc1cnnc2cc(-c3cc(B(O)O)cc4c3OC(F)(F)O4)ccc12` [Example 128, [7-(4-aminocinnolin-7-yl)-2,2-difluoro-2H-1,3-benzodioxol-5-yl]boronic Acid]: the IC50 was 0.55 nM.

Consider `Nc1cnnc2cc(-c3cc(B(O)O)ccc3OC3CCC(=O)NC3)ccc12` (stereo not shown) [Example 126, [3-(4-aminocinnolin-7-yl)-4-[(6-oxopiperidin-3-yl)oxy]phenyl]boronic Acid], for which the IC50 is 6.03 nM.

For the compound `Cc1nnc(N)c2ccc(-c3ccc4c(c3)B(O)OCC4)cc12` [Example 26, Formic Acid Salt], the IC50 is 2.19 nM.

With `Nc1cnnc2cc(-c3cc(F)c4c(c3)B(O)OCC4)ccc12` [Example 99, 7-(4-aminocinnolin-7-yl)-5-fluoro-3,4-dihydro-1H-2,1-benzoxazonin-1-ol], the IC50 is 1.55 nM.

With `Nc1cnnc2cc(-c3cc(B(O)O)ccc3OCC3CNC(=O)C3)ccc12` (single isomer, unassigned) [Example 154, [3-(4-aminocinnolin-7-yl)-4-[(5-oxopyrrolidin-3-yl)methoxy]phenyl]boronic Acid], the IC50 was 1.78 nM.

Regarding `CC1(C)COC(COc2ccc(B(O)O)cc2-c2ccc3c(N)cnnc3c2)C1` (stereo not shown) [Example 114, [3-(4-aminocinnolin-7-yl)-4-[(4,4-dimethyloxolane-2-yl)methoxy]phenyl]boronic Acid], the IC50 was 1.05 nM.

Consider `COc1cc2c(cc1-c1ccc3c(N)nnc(C)c3c1)B(O)OC2` [Example 20, 6-(1-hydroxy-5-methoxy-3H-2,1-benzoxaborol-6-yl)-4-methylphthalazin-1-amine], for which the IC50 was 10 nM.

In the case of `Cc1nnc(N)c2ccc(-n3cc(B(O)O)cn3)cc12` [Example 23, [1-(1-amino-4-methylphthalazin-6-yl)pyrazol-4-yl]boronic Acid], the IC50 is 363 nM.

Take `Nc1cnnc2cc(-c3cc(B(O)O)ccc3Oc3nccs3)ccc12` [Example 169, [3-(4-aminocinnolin-7-yl)-4-(1,3-thiazol-2-yloxy)phenyl]boronic Acid Formic Acid Salt]: the IC50 is 1.45 nM.

`Nc1cnnc2cc(-c3cc(B(O)O)ccc3OCCC3CCCO3)ccc12` (stereo not shown) [Example 110, [3-(4-aminocinnolin-7-yl)-4-[2-(oxolan-2-yl)ethoxy]phenyl]boronic Acid]: the IC50 is 0.661 nM.

Take `COc1cc(C)c(B(O)O)cc1-c1ccc2c(N)nnc(C)c2c1` [Example 28, [5-(1-amino-4-methylphthalazin-6-yl)-4-methoxy-2-methylphenyl]boronic Acid Formic Acid Salt]: the IC50 was 1.78 nM.

As for `Cc1nnc(N)c2ccc(-c3c(C(F)(F)F)ccc(B(O)O)c3F)cc12` [Example 68, [3-(1-amino-4-methylphthalazin-6-yl)-2-fluoro-4-(trifluoromethyl)phenyl]boronic Acid], the IC50 was 129 nM.

Consider `Cc1nnc(N)c2ccc(-c3cc(B(O)O)ccc3OC(F)F)cc12` [Example 131, [3-(1-amino-4-methylphthalazin-6-yl)-4-(difluoromethoxy)phenyl]boronic Acid Formic Acid Salt], for which the IC50 was 0.617 nM.

As to `Cc1cc(C#N)c(-c2ccc3c(N)nnc(C)c3c2)cc1B(O)O` [Example 41, [5-(1-amino-4-methylphthalazin-6-yl)-4-cyano-2-methylphenyl]boronic Acid], the IC50 is 1.2 nM.

Turning to `Nc1cnnc2cc(-c3cc(B(O)O)ccc3N3CCOCC3)ccc12` [Example 143, [3-(4-aminocinnolin-7-yl)-4-(morpholin-4-yl)phenyl]boronic Acid Formic Acid Salt], the IC50 is 57.5 nM.

The record behind these values is patent US12509474B2, “Inhibitors of complement factors and uses thereof” (Annexon, Inc., priority 2020, dated 2025).
